Legend:
dopamine D2 receptor = dopamine D2 receptor (Homo sapiens, UniProt P14416); assay: D3/D2 agonist assay, functional response at D2 receptor; assay type: cell-based; conditions: at 1000 nM; relative to the maximal effect of pramipexole
Description: (§1) Activity at the dopamine D3 receptor may be determined using the methods described in WO 2004/052372. […] Selectivity is calculated as the D2 EC50 value divided by the D3 EC50 value. Where the value of the D2 EC50 was >10000, a figure of 10000 was used in the calculation.
(§2) Against the D2 receptor this compound gave only a 28% repsonse (relative to the maximal effect of pramipexole) at 1000 nM. Suitable auxiliary active agents for use in the combinations of the present invention include: • 1) Naturally occurring or synthetic prostaglandins or esters thereof. Suitable prostaglandins for use herein include compounds such as alprostadil, prostaglandin E1, prostaglandin E0, 13,14-dihydroprosta glandin E1, prostaglandin E2, eprostinol, natural synthetic and semi-synthetic prostaglandins and derivatives thereof including those described in WO-00033825 and/or U.S. Pat. No. 6,037,346 issued on 14 Mar. 2000 all incorporated herein by reference, PGE0, PGE1, PGA1, PGB1, PGF1 α, 19-hydroxy PGA1, 19-hydroxy-PGB1, PGE2, PGB2, 19-hydroxy-PGA2, 19-hydroxy-PGB2, PGE3α, carboprost tromethamine dinoprost, tromethamine, dinoprostone, lipo prost, gemeprost, metenoprost, sulprostune, tiaprost and moxisylate; • 2) α-adrenergic receptor antagonist compounds also known as α-adrenoceptors or α-receptors or α-blockers. […]

dopamine D3 receptor = dopamine D3 receptor (Homo sapiens, UniProt P35462); assay: D3/D2 agonist assay, functional potency at D3 receptor; assay type: cell-based
Sequence of dopamine D3 receptor (P35462 whole entry, species assumed): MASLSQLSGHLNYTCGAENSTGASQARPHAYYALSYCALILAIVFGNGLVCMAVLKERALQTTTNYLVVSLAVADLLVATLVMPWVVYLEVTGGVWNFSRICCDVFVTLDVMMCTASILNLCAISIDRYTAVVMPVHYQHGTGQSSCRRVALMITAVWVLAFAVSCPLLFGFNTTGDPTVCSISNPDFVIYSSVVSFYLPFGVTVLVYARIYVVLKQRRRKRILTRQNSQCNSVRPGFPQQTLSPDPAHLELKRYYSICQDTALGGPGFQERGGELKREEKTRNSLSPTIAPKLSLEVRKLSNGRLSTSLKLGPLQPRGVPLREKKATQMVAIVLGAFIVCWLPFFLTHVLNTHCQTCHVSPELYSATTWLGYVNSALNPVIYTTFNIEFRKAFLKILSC
Description: as §1, §2

Sequence of dopamine D2 receptor (P14416 whole entry): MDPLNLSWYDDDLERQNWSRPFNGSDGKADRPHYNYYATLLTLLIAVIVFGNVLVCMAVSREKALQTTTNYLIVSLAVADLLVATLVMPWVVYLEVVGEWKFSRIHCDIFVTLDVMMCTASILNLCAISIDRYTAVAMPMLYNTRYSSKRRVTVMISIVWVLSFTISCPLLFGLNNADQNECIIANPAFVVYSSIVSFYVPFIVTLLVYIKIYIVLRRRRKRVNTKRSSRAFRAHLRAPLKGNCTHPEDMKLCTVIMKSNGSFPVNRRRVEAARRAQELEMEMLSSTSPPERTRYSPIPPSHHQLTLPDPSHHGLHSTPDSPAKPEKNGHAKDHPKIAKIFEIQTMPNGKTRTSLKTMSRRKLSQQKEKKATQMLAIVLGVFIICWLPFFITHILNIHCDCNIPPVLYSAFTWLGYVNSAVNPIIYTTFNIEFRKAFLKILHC

CCCN1CC(c2cccc3[nH]ncc23)C1 [Example 13, 4-(1-propylazetidin-3-yl)-1H-indazole]
response against the D2 receptor (dopamine D2 receptor): 28%
EC50 (dopamine D3 receptor; methods described in WO 2004/052372, read-out: functional potency at the D3 receptor, expressed as an EC50): 38 nM
Emax (dopamine D3 receptor; relative to the maximal effect of standard agent pramipexole, read-out: Emax (maximal response value) at the D3 receptor): 74%

Reference: patent US20050267096A1, “New indazole and indolone derivatives and their use pharmaceuticals” (Pfizer Inc, priority 2004, published 2005)
